According to patent US20220062278A1, “SMALL MOLECULE INHIBITORS OF THE ANDROGEN RECEPTOR ACTIVITY AND/OR EXPRESSION AND USES THEREOF” (Arizona Board of Regents on Behalf of the Univeristy of …, priority 2018, published 2022):

Target: T1, AR (Homo sapiens, UniProt P10275)
T1 sequence (P10275 669-920 limits assumed): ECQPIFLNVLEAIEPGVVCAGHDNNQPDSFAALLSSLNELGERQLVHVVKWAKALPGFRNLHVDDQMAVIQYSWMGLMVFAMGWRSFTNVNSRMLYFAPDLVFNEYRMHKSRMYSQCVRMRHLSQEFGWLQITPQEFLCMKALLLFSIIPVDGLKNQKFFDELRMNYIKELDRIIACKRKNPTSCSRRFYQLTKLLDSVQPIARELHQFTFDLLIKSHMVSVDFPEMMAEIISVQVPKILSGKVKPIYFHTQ
Experiment: GeneBlazer assay, inhibition against AR activity
Assay type: cell-based
Conditions: Table II
Description: Tables II, III and IV show % inhibition against AR activity at 10 μm within a GeneBlazer assay, and IC50 values (nM) in GeneBlazer assay.

Row | inhibition at 10 µM | IC50 | SMILES
1 | 68.1% | – | Oc1cccc(CN2CCN(c3c(Cl)cncc3Cl)CC2)c1 [Compound 22, 3-((4-(3,5-dichloropyridin-4-yl)piperazin-1-yl)methyl)phenol]
2 | 101% | – | Clc1cncc(Cl)c1N1CCN(Cc2cc3ccccc3o2)CC1 [Compound 23, 1-(benzofuran-2-ylmethyl)-4-(3,5-dichloropyridin-4-yl)piperazine]
3 | 98% | 1600 nM | CCCCn1nnnc1C(c1cccc(O)c1)N1CCN(c2c(Cl)cccc2Cl)CC1 (stereo not shown) [Compound 25, 3-((1-butyl-1H-tetrazol-5-yl)(4-(2,6-dichlorophenyl)piperazin-1-yl)methyl)phenol]
4 | 1.04% | – | CCCCn1nnnc1C(c1cccc(O)c1)N1CCN(c2ccncc2)CC1 (stereo not shown) [Compound 27, 3-((1-butyl-1H-tetrazol-5-yl)(4-(pyridin-4-yl)piperazin-1-yl)methyl)phenol]
5 | 96.8% | – | CCCCn1nnnc1C(c1cc2ccccc2o1)N1CCN(c2c(Cl)cncc2Cl)CC1 (stereo not shown) [Compound 28, 1-(benzofuran-2-yl(1-butyl-1H-tetrazol-5-yl)methyl)-4-(3,5-dichloropyridin-4-yl)piperazine]
6 | 108% | – | CC(C)(C)n1nnnc1C(c1ccnc2ccccc12)N1CCN(c2c(Cl)cncc2Cl)CC1 (stereo not shown) [Compound 29, 4-((1-(tert-butyl)-1H-tetrazol-5-yl)(4-(3,5-dichloropyridin-4-yl)piperazin-1-yl)methyl)quinoline]
7 | 100% | – | CCCCn1nnnc1C(c1ccncc1)N1CCN(c2c(Cl)cncc2Cl)CC1 (stereo not shown) [Compound 30, 1-((1-butyl-1H-tetrazol-5-yl)(pyridin-4-yl)methyl)-4-(3,5-dichloropyridin-4-yl)piperazine]
8 | 91.4% | – | CC(C)(C)n1nnnc1C(c1ccncc1)N1CCN(c2c(Cl)cncc2Cl)CC1 (stereo not shown) [Compound 31, 1-((1-(tert-butyl)-1H-tetrazol-5-yl)(pyridin-4-yl)methyl)-4-(3,5-dichloropyridin-4-yl)piperazine]
9 | 91.6% | – | CCCCn1nnnc1C(c1ccc(OC)cc1)N1CCN(c2c(Cl)cncc2Cl)CC1 (stereo not shown) [Compound 32, 1-((1-butyl-1H-tetrazol-5-yl)(4-methoxyphenyl)methyl)-4-(3,5-dichloropyridin-4-yl)piperazine]
10 | 97.5% | – | COc1ccc(C(c2nnnn2C(C)(C)C)N2CCN(c3c(Cl)cncc3Cl)CC2)cc1 (stereo not shown) [Compound 33, 1-((1-(tert-butyl)-1H-tetrazol-5-yl)(4-methoxyphenyl)methyl)-4-(3,5-dichloropyridin-4-yl)piperazine]
11 | 99.8% | – | CCCCn1nnnc1C(c1ccc(C#N)cc1)N1CCN(c2c(Cl)cncc2Cl)CC1 (stereo not shown) [Compound 34, 4-((1-butyl-1H-tetrazol-5-yl)(4-(3,5-dichloropyridin-4-yl)piperazin-1-yl)methyl)benzonitrile]
12 | 106% | – | CC(C)(C)n1nnnc1C(c1ccc(C#N)cc1)N1CCN(c2c(Cl)cncc2Cl)CC1 (stereo not shown) [Compound 35, 4-((1-(tert-butyl)-1H-tetrazol-5-yl)(4-(3,5-dichloropyridin-4-yl)piperazin-1-yl)methyl)benzonitrile]
13 | 102% | – | CCCCn1nnnc1C(c1ccc(F)cc1)N1CCN(c2c(Cl)cncc2Cl)CC1 (stereo not shown) [Compound 36, 1-((1-butyl-1H-tetrazol-5-yl)(4-fluorophenyl)methyl)-4-(3,5-dichloropyridin-4-yl)piperazine]
14 | 111% | – | CC(C)(C)n1nnnc1C(c1ccc(F)cc1)N1CCN(c2c(Cl)cncc2Cl)CC1 (stereo not shown) [Compound 37, 1-((1-(tert-butyl)-1H-tetrazol-5-yl)(4-fluorophenyl)methyl)-4-(3,5-dichloropyridin-4-yl)piperazine]
15 | 97.6% | – | CCCCn1nnnc1C(c1cccc2ccccc12)N1CCN(c2c(Cl)cncc2Cl)CC1 (stereo not shown) [Compound 38, 1-((1-butyl-1H-tetrazol-5-yl)(naphthalen-1-yl)methyl)-4-(3,5-dichloropyridin-4-yl)piperazine]
16 | 107% | – | CC(C)(C)n1nnnc1C(c1cccc2ccccc12)N1CCN(c2c(Cl)cncc2Cl)CC1 (stereo not shown) [Compound 39, 1-((1-(tert-butyl)-1H-tetrazol-5-yl)(naphthalen-1-yl)methyl)-4-(3,5-dichloropyridin-4-yl)piperazine]
17 | 87.6% | – | CCCCn1nnnc1C(c1ccc2ccccc2c1)N1CCN(c2c(Cl)cncc2Cl)CC1 (stereo not shown) [Compound 40, 1-((1-butyl-1H-tetrazol-5-yl)(naphthalen-2-yl)methyl)-4-(3,5-dichloropyridin-4-yl)piperazine]
18 | 108% | – | CC(C)(C)n1nnnc1C(c1ccc2ccccc2c1)N1CCN(c2c(Cl)cncc2Cl)CC1 (stereo not shown) [Compound 41, 1-((1-(tert-butyl)-1H-tetrazol-5-yl)(naphthalen-2-yl)methyl)-4-(3,5-dichloropyridin-4-yl)piperazine]

More lines, now with the values behind:

Row | SMILES | inhibition at 10 µM | IC50
19 | CCCCn1nnnc1C(c1cccc(O)c1)N1CCN(c2c(Cl)cncc2Cl)CC1 (stereo not shown) [Compound 1, 3-((1-butyl-1H-tetrazol-5-yl)(4-(3,5-dichloropyridin-4-yl)piperazin-1-yl)methyl)phenol] | 81.5% | 45.9 nM
20 | CC(C)(C)n1nnnc1C(c1cc2ccccc2o1)N1CCN(c2c(Cl)cncc2Cl)CC1 (stereo not shown) [Compound 2, 1-(benzofuran-2-yl(1-(tert-butyl)-1H-tetrazol-5-yl)methyl)-4-(3,5-dichloropyridin-4-yl)piperazine] | 108% | 557 nM
21 | CCCCn1nnnc1C(c1ccnc2ccccc12)N1CCN(c2c(Cl)cncc2Cl)CC1 (stereo not shown) [Compound 3, 4-((1-butyl-1H-tetrazol-5-yl)(4-(3,5-dichloropyridin-4-yl)piperazin-1-yl)methyl)quinoline] | 110% | 523 nM
22 | CCCCn1nnnc1C(c1ccccc1)N1CCN(c2c(Cl)cncc2Cl)CC1 (stereo not shown) [Compound 4, 1-((1-butyl-1H-tetrazol-5-yl)(phenyl)methyl)-4-(3,5-dichloropyridin-4-yl)piperazine] | 101% | –
23 | CCCCn1nnnc1CN1CCN(c2c(Cl)cncc2Cl)CC1 [Compound 5, 1-((1-butyl-1H-tetrazol-5-yl)methyl)-4-(3,5-dichloropyridin-4-yl)piperazine] | 95.2% | 1710 nM
24 | CCCCn1nnnc1C(C)N1CCN(c2c(Cl)cncc2Cl)CC1 (stereo not shown) [Compound 6, 1-(1-(1-butyl-1H-tetrazol-5-yl)ethyl)-4-(3,5-dichloropyridin-4-yl)piperazine] | 95.3% | –
25 | CCCCn1nnnc1C(c1cccc(OC)c1)N1CCN(c2c(Cl)cncc2Cl)CC1 (stereo not shown) [Compound 7, 1-((1-butyl-1H-tetrazol-5-yl)(3-methoxyphenyl)methyl)-4-(3,5-dichloropyridin-4-yl)piperazine] | 108% | –
26 | CCCCn1nnnc1C(c1cccc(F)c1)N1CCN(c2c(Cl)cncc2Cl)CC1 (stereo not shown) [Compound 8] | 95.3% | –
27 | CC(C)(C)n1nnnc1C(c1cccs1)N1CCN(c2c(Cl)cncc2Cl)CC1 (stereo not shown) [Compound 9] | 104% | –
28 | CCCCn1nnnc1C(c1cccs1)N1CCN(c2c(Cl)cncc2Cl)CC1 (stereo not shown) [Compound 10, 1-((1-butyl-1H-tetrazol-5-yl)(thiophen-2-yl)methyl)-4-(3,5-dichloropyridin-4-yl)piperazine] | 98.2% | –
29 | CCCCn1nnnc1C(c1ccc2c(c1)OCO2)N1CCN(c2c(Cl)cncc2Cl)CC1 (stereo not shown) [Compound 11, 1-(benzo[d][1,3]dioxol-5-yl(1-butyl-1H-tetrazol-5-yl)methyl)-4-(3,5-dichloropyridin-4-yl)piperazine] | 98.4% | –
30 | CCCCn1nnnc1C(c1ccc2[nH]ccc2c1)N1CCN(c2c(Cl)cncc2Cl)CC1 (stereo not shown) [Compound 12, 5-((1-butyl-1H-tetrazol-5-yl)(4-(3,5-dichloropyridin-4-yl)piperazin-1-yl)methyl)-1H-indole] | 93.9% | –
31 | CC(C)n1nnnc1C(c1cccc(O)c1)N1CCN(c2c(Cl)cncc2Cl)CC1 (stereo not shown) [Compound 15, 3-((4-(3,5-dichloropyridin-4-yl)piperazin-1-yl)(1-isopropyl-1H-tetrazol-5-yl)methyl)phenol] | 86% | –
32 | CC(C)(C)n1nnnc1C(c1cccc(O)c1)N1CCN(c2c(Cl)cncc2Cl)CC1 (stereo not shown) [Compound 16, 3-((1-(tert-butyl)-1H-tetrazol-5-yl)(4-(3,5-dichloropyridin-4-yl)piperazin-1-yl)methyl)phenol] | 102% | –
33 | Oc1cccc(C(c2nnnn2C2CCCC2)N2CCN(c3c(Cl)cncc3Cl)CC2)c1 (stereo not shown) [Compound 17, 3-((1-cyclopentyl-1H-tetrazol-5-yl)(4-(3,5-dichloropyridin-4-yl)piperazin-1-yl)methyl)phenol] | 108% | –
34 | Oc1cccc(C(c2nnnn2C2CCCCC2)N2CCN(c3c(Cl)cncc3Cl)CC2)c1 (stereo not shown) [Compound 18, 3-((1-cyclohexyl-1H-tetrazol-5-yl)(4-(3,5-dichloropyridin-4-yl)piperazin-1-yl)methyl)phenol] | 110% | –
35 | Oc1cccc(C(c2nnnn2Cc2ccccc2)N2CCN(c3c(Cl)cncc3Cl)CC2)c1 (stereo not shown) [Compound 19, 3-((1-benzyl-1H-tetrazol-5-yl)(4-(3,5-dichloropyridin-4-yl)piperazin-1-yl)methyl)phenol] | 120% | 134 nM
36 | Cc1cccc(C)c1-n1nnnc1C(c1cccc(O)c1)N1CCN(c2c(Cl)cncc2Cl)CC1 (stereo not shown) [Compound 20, 3-((4-(3,5-dichloropyridin-4-yl)piperazin-1-yl)(1-(2,6-dimethylphenyl)-1H-tetrazol-5-yl)methyl)phenol] | 111% | –
37 | CCCCNC(=O)C(c1cccc(O)c1)N1CCN(c2c(Cl)cncc2Cl)CC1 (stereo not shown) [Compound 21, N-butyl-2-(4-(3,5-dichloropyridin-4-yl)piperazin-1-yl)-2-(3-hydroxyphenyl)acetamide] | 93% | –
